Data published in ChEMBL document CHEMBL3638907, “Substituted pyrazolo[1,5-a]pyrimidine compounds as Trk kinase inhibitors” (2014).

Molecular target: Tyrosine-protein kinase JAK2 (Homo sapiens, UniProt O60674)
Experiment: Inhibition Assay: Compounds of Formula I were screened for their ability to inhibit Jak2 using the general enzyme inhibition assay method, in which the assay mixture contained 500 μM ATP, 10 μM Omnia Y7 peptide (Catalog # IVGN KNZ3071C, Invitrogen Corporation, Carlsbad, Calif.) and 4 nM Jak2 in a total volume of 20 μL. […] (catalog # IVGN PV4210).

Sequence of Tyrosine-protein kinase JAK2 (O60674 whole entry): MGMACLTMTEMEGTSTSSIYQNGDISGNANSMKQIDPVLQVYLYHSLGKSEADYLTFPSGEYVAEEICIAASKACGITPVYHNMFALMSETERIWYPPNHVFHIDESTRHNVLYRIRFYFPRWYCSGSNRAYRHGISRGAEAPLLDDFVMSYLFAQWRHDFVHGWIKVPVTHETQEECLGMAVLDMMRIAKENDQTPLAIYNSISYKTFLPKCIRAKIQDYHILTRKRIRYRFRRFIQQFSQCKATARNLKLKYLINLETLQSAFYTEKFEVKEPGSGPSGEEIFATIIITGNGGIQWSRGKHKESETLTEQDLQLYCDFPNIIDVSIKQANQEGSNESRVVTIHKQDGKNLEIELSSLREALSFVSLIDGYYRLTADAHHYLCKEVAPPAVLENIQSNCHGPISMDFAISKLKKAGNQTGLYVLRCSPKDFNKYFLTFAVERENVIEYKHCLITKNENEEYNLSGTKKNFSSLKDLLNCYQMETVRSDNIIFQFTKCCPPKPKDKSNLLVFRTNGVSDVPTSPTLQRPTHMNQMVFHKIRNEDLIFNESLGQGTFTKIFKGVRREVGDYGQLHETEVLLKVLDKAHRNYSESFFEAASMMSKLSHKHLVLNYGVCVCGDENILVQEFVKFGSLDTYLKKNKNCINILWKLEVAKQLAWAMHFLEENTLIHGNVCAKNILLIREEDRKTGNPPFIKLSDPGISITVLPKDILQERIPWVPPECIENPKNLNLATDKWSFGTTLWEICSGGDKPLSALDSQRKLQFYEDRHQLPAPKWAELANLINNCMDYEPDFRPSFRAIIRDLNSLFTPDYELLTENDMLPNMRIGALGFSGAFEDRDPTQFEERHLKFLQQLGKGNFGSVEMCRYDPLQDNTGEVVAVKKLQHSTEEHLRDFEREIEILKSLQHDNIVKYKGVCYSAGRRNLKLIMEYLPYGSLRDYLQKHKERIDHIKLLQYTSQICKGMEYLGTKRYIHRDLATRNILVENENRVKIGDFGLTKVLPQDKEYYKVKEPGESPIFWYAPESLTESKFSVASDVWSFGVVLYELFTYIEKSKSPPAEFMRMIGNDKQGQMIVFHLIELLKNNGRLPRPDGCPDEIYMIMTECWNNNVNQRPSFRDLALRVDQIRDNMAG

Structure (SMILES) | IC50 [nM]
COCCOc1ccc(F)cc1[C@H]1CCCN1c1ccn2ncc(C(=O)NC3CC3)c2n1 | 472
COc1ncc(F)cc1[C@H]1CCCN1c1ccn2ncc(C(=O)NCCCNC(=O)OC(C)(C)C)c2n1 | > 1000
